Experiment [1] has as its target T1, 5-HT2B receptor (Homo sapiens, UniProt P41595).
T1 construct: host or cells: CHO-K1
The experiment can be described thus: cell-based. Conditions: agonist activity, Ca2+ flux, CHO-K1 cells; for EC50: read-out: 5-HT2B EC50.

Experiment [2] deals with T2, 5-HT2A receptor (Homo sapiens, UniProt P28223).
T2 construct: host or cells: HEK293
As to the kind of experiment: FLIPR Ca2+ flux functional assay, 5-HT2A. It is filed as cell-based. Conditions: agonist activity, Ca2+ flux, HEK293 cells; for EC50: read-out: 5-HT2A EC50. How it is done: Activity at 5-HT2A, 5-HT2B and 5-HT2C receptors was determined using a FLIPR Ca^2+ flux assay at WuXi AppTec Co. Ltd. (Hong Kong) Discovery Biology Unit according to their standard protocols. Briefly, stably transfected cells expressing the receptor of interest (HEK293 for 5-HT2A and 5-HT2C; CHO-K1 for 5-HT2B) were grown and plated in a 384 well plate and incubated at 37° C. and 5% CO2 overnight. A 250 mM stock solution of probenecid in FLIPR calcium assay buffer (10 mL) was freshly prepared and combined with a fluorescent dye (Fluo-4 Direct) to give a final assay concentration of 2.5 mM. Reference compounds were 4-fold serially diluted and the screening compounds were 3-fold serially diluted in 100% DMSO for 10 points using Agilent Bravo, and 750 nL was added to a 384 well compound plate using Echo along with 30 μL assay buffer. The fluorescent dye was then added to the assay plate along with assay buffer to a final volume of […]. The cell plate was incubated for 50 min at 37° C. and 5% CO2 and placed into the FLIPR Tetra along with the compound plate. 10 μL of references and compounds were then transferred from the compound plate into the cell plate and the fluorescent signal was read.

Experiment [3] deals with T3, 5-HT2C receptor (Homo sapiens, UniProt P28335).
T3 construct: host or cells: HEK293
T3 sequence (P28335 33-458): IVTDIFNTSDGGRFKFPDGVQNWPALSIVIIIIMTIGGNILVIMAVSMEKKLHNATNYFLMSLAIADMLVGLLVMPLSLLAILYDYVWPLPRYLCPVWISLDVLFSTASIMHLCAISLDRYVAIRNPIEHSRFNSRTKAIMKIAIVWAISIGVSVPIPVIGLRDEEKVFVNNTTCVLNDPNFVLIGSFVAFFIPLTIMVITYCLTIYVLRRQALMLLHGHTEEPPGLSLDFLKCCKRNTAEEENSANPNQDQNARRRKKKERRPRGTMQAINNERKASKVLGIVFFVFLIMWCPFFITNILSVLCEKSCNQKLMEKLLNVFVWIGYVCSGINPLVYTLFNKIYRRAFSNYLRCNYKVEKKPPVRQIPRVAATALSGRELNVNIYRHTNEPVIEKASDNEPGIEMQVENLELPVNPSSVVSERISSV
The experiment can be described thus: cell-based. The note with it: agonist activity, Ca2+ flux, HEK293 cells; for EC50: read-out: 5-HT2C EC50.

Drawing on patent publication US20250101038A1, “COMPOUNDS” (priority 2021, published 2025), this text covers Emax and EC50 for 21 compounds.

Bounds are passed on as bounds.

T1 sequence (P41595 whole entry): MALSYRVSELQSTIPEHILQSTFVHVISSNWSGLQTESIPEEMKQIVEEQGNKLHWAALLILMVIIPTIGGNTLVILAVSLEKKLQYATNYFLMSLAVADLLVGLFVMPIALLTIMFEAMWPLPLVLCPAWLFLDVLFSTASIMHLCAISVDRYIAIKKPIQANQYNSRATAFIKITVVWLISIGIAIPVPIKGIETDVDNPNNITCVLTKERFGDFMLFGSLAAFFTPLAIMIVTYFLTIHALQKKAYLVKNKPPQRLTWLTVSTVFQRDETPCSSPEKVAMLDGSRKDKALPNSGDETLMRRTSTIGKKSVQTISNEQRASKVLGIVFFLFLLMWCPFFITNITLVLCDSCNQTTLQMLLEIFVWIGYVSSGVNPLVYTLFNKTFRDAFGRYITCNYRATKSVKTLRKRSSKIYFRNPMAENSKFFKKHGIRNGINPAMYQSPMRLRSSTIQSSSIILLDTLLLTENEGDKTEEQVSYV
T2 sequence (P28223 whole entry): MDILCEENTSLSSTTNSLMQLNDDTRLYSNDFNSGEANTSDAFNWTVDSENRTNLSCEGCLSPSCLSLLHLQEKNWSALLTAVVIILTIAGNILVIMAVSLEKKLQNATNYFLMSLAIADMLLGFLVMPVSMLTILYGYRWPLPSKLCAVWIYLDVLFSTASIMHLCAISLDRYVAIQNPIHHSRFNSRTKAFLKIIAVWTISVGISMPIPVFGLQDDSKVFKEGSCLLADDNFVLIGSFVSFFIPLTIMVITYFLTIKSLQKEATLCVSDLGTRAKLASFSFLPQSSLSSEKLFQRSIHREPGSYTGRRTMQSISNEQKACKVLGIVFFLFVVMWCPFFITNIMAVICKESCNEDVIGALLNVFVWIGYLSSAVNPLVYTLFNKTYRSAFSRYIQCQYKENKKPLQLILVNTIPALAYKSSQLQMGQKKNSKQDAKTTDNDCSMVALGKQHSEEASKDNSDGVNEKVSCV

On to `CCCN(CC)CCc1c[nH]c2c(C)cc(OC)cc12` [Example P-55, N-ethyl-N-(2-(5-methoxy-7-methyl-1H-indol-3-yl)ethyl)propan-1-amine], for which the Emax in experiment [1] was determined as 13.2%; in experiment [2], 81.8%; in experiment [3], 57.9%. The EC50 in experiment [1] was > 10000 nM; in experiment [2] it was 134 nM; in experiment [3] it was 1810 nM.
With `CCCN(CCC)CCc1c[nH]c2c(C)cc(OC)cc12` [Example P-57, N, N-dipropyl-2-(5-methoxy-7-methyl-1H-indol-3-yl)ethan-1-amine], the Emax in experiment [1] amounted to 9.45%; in experiment [2], 79.2%; in experiment [3] it was 30.7%. Besides, the EC50 in experiment [1] is > 10000 nM; in experiment [2] it was 140 nM; in experiment [3] it was 2860 nM.
As for `COc1cc(C)c2[nH]cc(CCN(C(C)C)C(C)C)c2c1` [Example P-58, N-isopropyl-N-(2-(5-methoxy-7-methyl-1H-indol-3-yl)ethyl)propan-2-amine], the figures for the Emax in experiment [1], in experiment [2] and in experiment [3] were 42.8%, 84% and 85.8%, respectively. In addition, the EC50 was found to be 604 nM in experiment [1], 475 nM in experiment [2] and 1700 nM in experiment [3].
For `CCN(C)CCc1c[nH]c2ccc(C)c(OC)c12` [Example P-59, N-ethyl-2-(4-methoxy-5-methyl-1H-indol-3-yl)-N-methylethan-1-amine], the figures for the Emax in experiment [1], in experiment [2] and in experiment [3] were 68.1%, 78% and 90.5%, respectively. For the same compound, the results for the EC50 in experiment [1], in experiment [2] and in experiment [3] were 4710 nM, 34.6 nM and 43.8 nM, respectively.
With `COc1c(C)ccc2[nH]cc(CCN(C)C(C)C)c12` [Example P-60, N-(2-(4-methoxy-5-methyl-1H-indol-3-yl)ethyl)-N-methylpropan-2-amine], the Emax in experiment [1] is 71%; in experiment [2], 66.3%; in experiment [3] it was 72.2%. In addition, the EC50 is 768 nM in experiment [1], 77.6 nM in experiment [2] and 198 nM in experiment [3].
In the case of `CCN(CC)CCc1c[nH]c2ccc(C)c(OC)c12` [Example P-61, N, N-diethyl-2-(4-methoxy-5-methyl-1H-indol-3-yl)ethan-1-amine], the Emax in experiment [1] came to 46.3%; in experiment [2] it was 67.7%; in experiment [3] it was 75.8%. For the same compound, the EC50 in experiment [1] is > 10000 nM; in experiment [2], 321 nM; in experiment [3] it was 444 nM.
Regarding `CCN(CCc1c[nH]c2ccc(C)c(OC)c12)C(C)C` [Example P-62, N-ethyl-N-(2-(4-methoxy-5-methyl-1H-indol-3-yl)ethyl)propan-2-amine], the Emax in experiment [1] was 61.5%; in experiment [2], 41.9%; in experiment [3], 65.9%. The EC50 in experiment [1] came to 5320 nM; in experiment [2], 319 nM; in experiment [3], 1290 nM.
In the case of `COc1c(C)ccc2[nH]cc(CCN(C(C)C)C(C)C)c12` [Example P-63, N-isopropyl-N-(2-(4-methoxy-5-methyl-1H-indol-3-yl)ethyl)propan-2-amine], the Emax stood at 70.2% in experiment [1], 72.7% in experiment [2] and 49.4% in experiment [3]. Moreover, the results for the EC50 in experiment [1], in experiment [2] and in experiment [3] were 2250 nM, 1570 nM and 9660 nM, respectively.
As for `CCN(C)CCc1c[nH]c2ccc(C)c(O)c12` [Example P-64, 3-(2-(ethyl(methyl)amino)ethyl)-5-methyl-1H-indol-4-ol], the Emax in experiment [1] was determined as 2.42%; in experiment [2], 79%; in experiment [3], 61%. The EC50 is ≥ 10000 nM in experiment [1], 62.2 nM in experiment [2] and 141 nM in experiment [3].
Take `CCCN(C)CCc1c[nH]c2ccc(C)c(O)c12` [Example P-65, 5-methyl-3-(2-(methyl(propyl)amino)ethyl)-1H-indol-4-ol]: the figures for the Emax in experiment [1], in experiment [2] and in experiment [3] were 6.22%, 78.8% and 66.3%, respectively. The EC50 is ≥ 10000 nM in experiment [1], 56.1 nM in experiment [2] and 175 nM in experiment [3].
Take `Cc1ccc2[nH]cc(CCN(C)C(C)C)c2c1O` [Example P-66, 3-(2-(isopropyl(methyl)amino)ethyl)-5-methyl-1H-indol-4-ol]: the Emax in experiment [1] was 2.07%; in experiment [2], 94.7%; in experiment [3], 50.3%. For the same compound, the EC50 in experiment [1] was ≥ 10000 nM; in experiment [2], 91.9 nM; in experiment [3], 391 nM.
With `CCN(CC)CCc1c[nH]c2ccc(C)c(O)c12` [Example P-67, 3-(2-(diethylamino)ethyl)-5-methyl-1H-indol-4-ol], the Emax is 11.7% in experiment [1], 78.3% in experiment [2] and 78.2% in experiment [3]. Also, the values for the EC50 in experiment [1], in experiment [2] and in experiment [3] were ≥ 10000 nM, 163 nM and 922 nM, respectively.
For `CCCN(CCC)CCc1c[nH]c2ccc(C)c(O)c12` [Example P-68, 3-(2-(dipropylamino)ethyl)-5-methyl-1H-indol-4-ol], the Emax in experiment [1] came to 64.3%; in experiment [2] it was 102%; in experiment [3], 78%. Also, the EC50 in experiment [1] is ≥ 10000 nM; in experiment [2], 148 nM; in experiment [3], 871 nM.
For `Cc1ccc2[nH]cc(CCN(C(C)C)C(C)C)c2c1O` [Example P-69, 3-(2-(diisopropylamino)ethyl)-5-methyl-1H-indol-4-ol], the Emax in experiment [1] was 66.9%; in experiment [2], 78.8%; in experiment [3], 70.2%. Also, the EC50 was ≥ 10000 nM in experiment [1], 245 nM in experiment [2] and 3210 nM in experiment [3].
With `CCN(C)CCc1c[nH]c2c(C)ccc(OC)c12` [Example P-80, N-ethyl-2-(4-methoxy-7-methyl-1H-indol-3-yl)-N-methylethan-1-amine], the Emax in experiment [1] was found to be 0.74%; in experiment [2], 30%; in experiment [3], 66.7%. The results for the EC50 in experiment [1], in experiment [2] and in experiment [3] were > 10000 nM, 113 nM and 140 nM, respectively.
In the case of `COc1ccc(C)c2[nH]cc(CCN(C)C(C)C)c12` [Example P-81, N-(2-(4-methoxy-7-methyl-1H-indol-3-yl)ethyl)-N-methylpropan-2-amine], the Emax in experiment [1] was determined as 0.59%; in experiment [2], 41.4%; in experiment [3], 38.8%. Further, the EC50 in experiment [1] is > 10000 nM; in experiment [2] it was 126 nM; in experiment [3], 764 nM.
On to `CCN(CC)CCc1c[nH]c2c(C)ccc(OC)c12` [Example P-82, N,N-diethyl-2-(4-methoxy-7-methyl-1H-indol-3-yl)ethan-1-amine], for which the Emax in experiment [1] stood at 0.89%; in experiment [2], 42.4%; in experiment [3], 76.7%. The EC50 in experiment [1] is > 10000 nM; in experiment [2] it was 283 nM; in experiment [3], 417 nM.
For the compound `COc1ccc(C)c2[nH]cc(CCN(C(C)C)C(C)C)c12` [Example P-83, N-isopropyl-N-(2-(4-methoxy-7-methyl-1H-indol-3-yl)ethyl)propan-2-amine], the Emax in experiment [1] was determined as 30%; in experiment [2], 79.2%; in experiment [3], 66.7%. Further, the EC50 in experiment [1] was > 10000 nM; in experiment [2], 619 nM; in experiment [3] it was 1620 nM.
In the case of `CCN(C)CCc1c[nH]c2c(C)ccc(O)c12` [Example P-85, 3-(2-(ethyl(methyl)amino)ethyl)-7-methyl-1H-indol-4-ol], the values for the Emax in experiment [1], in experiment [2] and in experiment [3] were 0.13%, 52% and 26.9%, respectively.
As to `CCCN(C)CCc1c[nH]c2c(C)ccc(O)c12` [Example P-86, 7-methyl-3-(2-(methyl(propyl)amino)ethyl)-1H-indol-4-ol], the Emax in experiment [1] was -0.14%; in experiment [2], 66.9%; in experiment [3] it was 10%. Further, the EC50 is ≥ 10000 nM in experiment [1], 110 nM in experiment [2] and > 10000 nM in experiment [3].
`Cc1ccc(O)c2c(CCN(C)C(C)C)c[nH]c12` [Example P-87, 3-(2-(isopropyl(methyl)amino)ethyl)-7-methyl-1H-indol-4-ol]: the Emax is -0.38% in experiment [1], 62.4% in experiment [2] and 4.33% in experiment [3]. For the same compound, the figures for the 50% effective concentration (EC50) in experiment [1], in experiment [2] and in experiment [3] were ≥ 10000 nM, 113 nM and > 10000 nM, respectively.
